From ChEMBL document CHEMBL6134844, “Development of Next-Generation Antimalarial Acridones with Radical Cure Potential” (J Med Chem, 2025)
Active and inactive are the calls of the source. No cut-off for these calls is given here.

Columns and labels:
[1] = Toxicity in CF1 mouse infected with asexual blood-stage (ABS) Plasmodium yoelii MRA-428 assessed as lethargy at 0.3 to 30 mg/kg, po treated 24 hrs post infection measured after 4 days; type: organism-based; details: in vivo, 96 h, dose 0.3-30 mg/kg, time 4 day
[2] = Cmax in male ICR-CD1 mouse liver at 40 mg/kg, po; type: ADME, organism-based
[3] = (§1) Selectivity index, ratio of CC50 for Macaca mulatta hepatocytes to IC50 for antiplasmodial activity against schizont Plasmodium cynomolgi B strain infected in Macaca mulatta hepatocytes incubated with sporozoite containing salivary gland homogenate obtained from dissected Anopheles dirus mosquitoes (infected with Plasmodium cynomolgi B strain) treatment started on day 4 post infection and continued daily for 4 days into fresh changed media until day 8 assessed as Liver stage (LS) activity by measuring radical cure mode by immunofluorescent staining analysis; type: toxicity, cell-based; details: rhesus monkey, read-out: Selectivity Index
Plasmodium falciparum [4] = assay: Antiplasmodial activity against asexual blood-stage (ABS) ATV-resistant clinical isolate Plasmodium falciparum Tm90-C2B infected in human erythrocytes assessed as reduction in fluorescence measured after 72 hrs by Malaria SYBR Green I-based Fluorescence (MSF) assay; type: functional, organism-based; details: Erythrocyte
[5] = Toxicity in CF1 mouse infected with asexual blood-stage (ABS) Plasmodium yoelii MRA-428 assessed as hunching at 0.3 to 30 mg/kg, po treated 24 hrs post infection measured after 4 days; type: organism-based; details: in vivo, 96 h, dose 0.3-30 mg/kg, time 4 day
[6] = Toxicity in CF1 mouse infected with asexual blood-stage (ABS) Plasmodium yoelii MRA-428 assessed as hyperactivity at 0.3 to 30 mg/kg, po treated 24 hrs post infection measured after 4 days; type: organism-based; details: in vivo, 96 h, dose 0.3-30 mg/kg, time 4 day
Plasmodium cynomolgi [7] = assay: as §1, with “Antiplasmodial” for “Selectivity index, ratio of CC50 for Macaca mulatta hepatocytes to IC50 for antiplasmodial”, “prophylactic” for “radical cure”; type: functional, organism-based; details: Hepatocyte
[8] = Mutagenicity in Salmonella typhimurium TA100 assessed as background reversion rate up to 10 uM without S-9 metabolic activation by AMES test; type: toxicity; details: salmonella enterica subsp. enterica serovar typhimurium
Plasmodium falciparum [9] = assay: Antiplasmodial activity against asexual blood-stage (ABS) CQ-sensitive Plasmodium falciparum D6 infected in human erythrocytes assessed as reduction in fluorescence measured after 72 hrs by Malaria SYBR Green I-based Fluorescence (MSF) assay; type: functional, organism-based; details: D6, Erythrocyte
[10] = AUC(0 to infinity) in male ICR-CD1 mouse liver at 40 mg/kg, po; type: ADME, organism-based
[11] = MRTlast in male ICR-CD1 mouse plasma at 40 mg/kg, po; type: ADME, organism-based
Plasmodium berghei [12] = assay: In vivo antiplasmodial activity against luciferase expressing liver stage Plasmodium berghei ANKA MRA-868 sporozoites infected in Albino C57BL/6 mouse model assessed as protection at 40 mg/kg, po daily measured 24 to 72 hrs by real-time In Vivo Imaging System (IVIS); type: functional; details: time 24-72 hrs
[13] = MRTlast in male ICR-CD1 mouse liver at 40 mg/kg, po; type: ADME, organism-based
[14] = Mutagenicity in Salmonella typhimurium TA98 assessed as background reversion rate up to 10 uM without S-9 metabolic activation by AMES test; type: toxicity; details: salmonella enterica subsp. enterica serovar typhimurium
Plasmodium yoelii [15] = assay: In vivo antiplasmodial activity against asexual blood-stage (ABS) Plasmodium yoelii MRA-428 infected in 4-day suppression CF1 mouse model assessed as reduction in parasitemia by measuring protection at 30 mg/kg, po treated 24 hrs post infection daily measured up to 28 days; type: functional, organism-based; details: time <= 28.0 day
Plasmodium cynomolgi [16] = assay: as §1, with “Antiplasmodial” for “Selectivity index, ratio of CC50 for Macaca mulatta hepatocytes to IC50 for antiplasmodial”, “hypnozoite” for “schizont”, “prophylactic” for “radical cure”; type: functional, organism-based; details: Hepatocyte
[17] = Toxicity in CF1 mouse infected with asexual blood-stage (ABS) Plasmodium yoelii MRA-428 assessed as ruffled hair at 0.3 to 30 mg/kg, po treated 24 hrs post infection measured after 4 days; type: organism-based; details: in vivo, 96 h, dose 0.3-30 mg/kg, time 4 day
[18] = Toxicity in CF1 mouse infected with asexual blood-stage (ABS) Plasmodium yoelii MRA-428 assessed as clinical toxicity at 0.3 to 30 mg/kg, po treated 24 hrs post infection measured after 4 days; type: organism-based; details: in vivo, dose 0.3-30 mg/kg
[19] = Mutagenicity in Salmonella typhimurium TA98 assessed as background reversion rate up to 10 uM with S-9 metabolic activation by AMES test; type: toxicity; details: salmonella enterica subsp. enterica serovar typhimurium
[20] = AUCextrap in male ICR-CD1 mouse liver at 40 mg/kg, po; type: ADME, organism-based
Plasmodium berghei [21] = assay: In vivo antiplasmodial activity against luciferase expressing liver stage Plasmodium berghei ANKA MRA-868 sporozoites infected in Albino C57BL/6 mouse model assessed as protection at 10 mg/kg, po daily measured 24 to 72 hrs by real-time In Vivo Imaging System (IVIS); type: functional
Plasmodium yoelii [22] = assay: In vivo antiplasmodial activity against asexual blood-stage (ABS) Plasmodium yoelii MRA-428 infected in 4-day suppression CF1 mouse model assessed as reduction in parasitemia by measuring cured mouse at 100 mg/kg, po single dose treated 24 hrs post infection; type: functional, organism-based
[23] = Toxicity in CF1 mouse infected with asexual blood-stage (ABS) Plasmodium yoelii MRA-428 assessed as weight loss at 0.3 to 30 mg/kg, po treated 24 hrs post infection measured after 4 days; type: organism-based; details: in vivo, 96 h, dose 0.3-30 mg/kg, time 4 day
Plasmodium cynomolgi [24] = assay: as §1, with “Antiplasmodial” for “Selectivity index, ratio of CC50 for Macaca mulatta hepatocytes to IC50 for antiplasmodial”, “hypnozoite” for “schizont”; type: functional, organism-based; details: Hepatocyte
[25] = Tmax in male ICR-CD1 mouse liver at 40 mg/kg, po; type: ADME, organism-based
Hepatocyte = assay: Cytotoxicity against Macaca mulatta hepatocytes assessed as cell viability measured after 48 hrs by MTT assay; type: toxicity, cell-based; details: rhesus monkey, 48 h
[26] = Toxicity in CF1 mouse infected with asexual blood-stage (ABS) Plasmodium yoelii MRA-428 assessed as behavioural change at 0.3 to 30 mg/kg, po treated 24 hrs post infection measured after 4 days; type: organism-based; details: in vivo, dose 0.3-30 mg/kg
[27] = as §1, with “hypnozoite” for “schizont”; type: toxicity, cell-based; details: rhesus monkey, read-out: Selectivity Index
[28] = Tmax in male ICR-CD1 mouse plasma at 40 mg/kg, po; type: ADME, organism-based
[29] = as §1, with “hypnozoite” for “schizont”, “prophylactic” for “radical cure”; type: toxicity, cell-based; details: rhesus monkey, read-out: Selectivity Index
Plasmodium berghei [30] = assay: In vivo antiplasmodial activity against luciferase expressing liver stage Plasmodium berghei ANKA MRA-868 sporozoites infected in Albino C57BL/6 mouse model assessed as visible parasites at 40 mg/kg, po daily measured 24 to 48 hrs by real-time In Vivo Imaging System (IVIS); type: functional, organism-based; details: time 24-48 hrs
[31] = Apparent oral clearance in male ICR-CD1 mouse liver at 40 mg/kg, po; type: ADME, organism-based
[32] = Mutagenicity in Salmonella typhimurium TA100 assessed as background reversion rate up to 10 uM with S-9 metabolic activation by AMES test; type: toxicity; details: salmonella enterica subsp. enterica serovar typhimurium
Plasmodium cynomolgi [33] = assay: as §1, with “Antiplasmodial” for “Selectivity index, ratio of CC50 for Macaca mulatta hepatocytes to IC50 for antiplasmodial”; type: functional, organism-based; details: Hepatocyte

| Compound | Activity [1] | Cmax [2] | selectivity ratio at 96 h [3] | IC50 (Plasmodium falciparum [4]) | Activity [5] | Activity [6] | IC50 (Plasmodium cynomolgi [7]) | Activity [8] | IC50 (Plasmodium falciparum [9]) | AUC(0-inf) [10] | MRT last [11] | Activity (Plasmodium berghei [12]) | MRT last [13] | Activity [14] | Activity (Plasmodium yoelii [15]) | IC50 (Plasmodium cynomolgi [16]) | Activity [17] | Activity [18] | Activity [19] | AUC [20] | further results |
| --- | --- | --- | --- | --- | --- | --- | --- | --- | --- | --- | --- | --- | --- | --- | --- | --- | --- | --- | --- | --- | --- |
| O=c1c2c([nH]c3cc(Oc4ccc(OC(F)(F)F)cc4)ccc13)CCCC2 | Non-toxic | 6080 ng/mL | 1.61 | 0.295 nM | Non-toxic | Non-toxic | 130 nM | Non-toxic | 0.31 nM | 33000 ng·h/mL | 4.1 h | 100% | 5.16 h | Non-toxic | Active; Out Of 4 - 3 Mouse Cured | 340 nM | Non-toxic | Non-toxic | Non-toxic | 0.12% | Activity (Plasmodium berghei [21]; time 24-72 hrs): 100%; Activity (Plasmodium yoelii [22]): Active; Activity [23]: Non-toxic; IC50 (Plasmodium cynomolgi [24]): 550 nM; Tmax [25]: 4 h; CC50 (Hepatocyte): 610 nM; Activity [26]: Non-toxic; selectivity ratio at 96 h [27]: 1.11; Tmax [28]: 1 h; selectivity ratio at 96 h [29]: 1.79; Activity (Plasmodium berghei [30]): Active; CL/F [31]: 0.542 mL/min/kg; Activity [32]: Non-toxic; IC50 (Plasmodium cynomolgi [33]): 380 nM |
| O=c1c2c([nH]c3cc(Oc4ccc(OC(F)(F)F)cc4)c(F)cc13)CCCC2 | Non-toxic | 654 ng/mL | 1.29 | 0.384 nM | Non-toxic | Non-toxic | 100 nM | Non-toxic | 0.015 nM | 5510 ng·h/mL | 2.95 h | 100% | 5.64 h | Non-toxic | Active; Out Of 4 - 3 Mouse Cured | 600 nM | Non-toxic | Non-toxic | Non-toxic | 0.603% | Activity (Plasmodium berghei [21]; time lower 24.0 hrs, time upper […]): Not active; Out Of 5 - 0 Mouse Cured; Activity (Plasmodium yoelii [22]): Active; Activity [23]: Non-toxic; IC50 (Plasmodium cynomolgi [24]): 2080 nM; Tmax [25]: 0.5 h; CC50 (Hepatocyte): 3110 nM; Activity [26]: Non-toxic; selectivity ratio at 96 h [27]: 1.49; Tmax [28]: 1 h; selectivity ratio at 96 h [29]: 5.18; Activity (Plasmodium berghei [30]): Active; CL/F [31]: 3.58 mL/min/kg; Activity [32]: Non-toxic; IC50 (Plasmodium cynomolgi [33]): 2410 nM |
